Laboratory results reported in patent US20040097478A1, “Remedies for retina and choroid diseases containing steroids as the active ingredient” (SANTEN PHARMACEUTICAL O., LTD, priority 2001, published 2004).
Where two headings read alike, the source gives them in different places.

Legend:
[1] = tested on: Thrombin-induced rat retinal vessel hyperpermeability models; assay: Retinal vessel permeability inhibition tests of betamethasone phosphate; format: in vivo; details: administered with thrombin
Method: A one ml/kg mixed solution (7:1) of a 5% ketamine hydrochloride injection and a 2% xylazine hydrochloride injection was intramuscularly administered to rats to anesthetize them systemically. Then, a 0.5% tropicamide-0.5% phenylephrine hydrochloride ophthalmic solution was instilled into left eyes to cause mydriasis. Thrombin (500. U/ml, 2.5 μl) was injected into vitreous bodies (left eye) of rats of a drug administration group and a control group with a 33 G needle without injuring crystalline lenses and retinas while observing them with a microscope for operation. A vehicle (Dulbecco's modified phosphate buffer physiological saline) was administered to rats of a normal group instead of thrombin. […]
Forty-eight hours after administering thrombin intravitreously, the 0.5% tropicamide-0.5% phenylephrine hydrochloride ophthalmic solution was instilled into the eyes to cause mydriasis. […] About 40 minutes after administering fluorescein, blood was collected from hearts, and then an intraocular fluorescent pigment concentration was immediately measured with a fluorotron master. The collected blood was centrifuged at 15,000 rpm×5 minutes, then supernatant (plasma) was diluted 51 times with the phosphate buffer physiological saline, and a fluorescent pigment concentration in the plasma was measured with the fluorotron master. […]

[2] = tested on: Laser-induced rat choroidal neovascularization models; details: for Neovascularization exhibition rate (%, average of eight eyes): fluorescein fundus angiography on seventh day; for Choroidal neovascularization inhibition rate (%): versus vehicle administration group
Method: (§1) A one ml/kg mixed solution (7:1) of a 5% ketamine hydrochloride injection and a 2% xylazine hydrochloride injection was administered intramuscularly to rats to anesthetize them systemically. A 0.5% tropicamide-0.5% phenylephrine hydrochloride ophthalmic solution was instilled into the eyes to cause mydriasis, and then photocoagulation was performed with a krypton laser photocoagulation apparatus. The photocoagulation was carried out in a posterior section of ocular fundus at eight spots per eye sparsely avoiding thick retinal vessels and focusing on the retinal depth (coagulation conditions: spot size: 100 μm, output: 100 mW, coagulation time: 0.1 sec). After the photocoagulation, the ocular fundus was photographed to confirm laser irradiation sites.
Triamcinolone was suspended in the phosphate buffers as a comparative group so that its concentrations were 0.2 mg/ml and 2 mg/ml, and each suspension was administered similarly. The phosphate buffer was administered similarly as a vehicle administration group.
(§2) On seventh day after the photocoagulation, 0.1 ml of 10% fluorescein was injected from carotid vein, and fluorescein fundus angiography was performed. In the fluorescein fundus angiography, a spot where fluorescence diapedesis was not observed was judged as negative, and a spot where fluorescence diapedesis was observed was judged as positive. Each neovascularization exhibition rate was obtained by calculating the ratio of a positive spot number to eight spots irradiated with the laser, and each choroidal neovascularization inhibition rate was calculated according to the following equation.
(§3) Choroidal neovascularization inhibition rate (%)=(Ao−Ax)/Ao×100
(§4) Ao: Neovascularization exhibition rate of vehicle administration group
(§5) Ax: Neovascularization exhibition rate of drug administration group

[3] = tested on: Dispase-induced rabbit PVR models; assay: Retinal detachment inhibition tests of betamethasone; format: in vivo; details: 10 mg/eye subconjunctival immediately after dispase
Method: A 0.5% tropicamide-0.5% phenylephrine hydrochloride ophthalmic solution was instilled into eyes of rabbits to cause mydriasis, and a 1 ml/kg mixed solution (7:1) of a 5% ketamine hydrochloride injection and a 2% xylazine hydrochloride injection was administered intramuscularly to the rabbits to anesthetize them systemically. 0.4% oxybuprocaine was instilled into the eyes to anesthetize anterior segments of the eyes, and then 100 μl of a dispase solution prepared at a concentration of 0.05 U/100 μl with physiological saline was injected into vitreous bodies. Six weeks and ten weeks after injecting the dispase solution, PVR induced by dispase was confirmed by observing ocular fundus.
Betamethasone was dissolved in a phosphate buffer so that its concentration was 0.1 g/ml, and the solution was administered subconjunctivally in an amount of 100 μl immediately after injecting dispase. The phosphate buffer was administered similarly as a vehicle administration group.
The ocular fundus was observed 56 days after inducing by dispase, and PVR was judged by scores. Criteria of judgment are shown below. Scores of three or more were defined as exhibition of PVR, and pathogenesis rates of PVR (pathogenesis rates of retinal detachment) in respective groups were calculated according to the equation 2.
1: A vitreous membrane is observed.
2: Traction, vascular abnormality or engorgement of the retina is observed.
3: Topical retinal detachment is observed.
4: Wide retinal detachment is observed.
5: Total retinal detachment is observed.
Pathogenesis rate of PVR (%)=PVR exhibition eye number/test eye number×100

[4] = tested on: Laser-induced rat choroidal neovascularization models; assay: Choroidal neovascularization inhibition tests of hydrocortisone; format: in vivo; details: for Neovascularization exhibition rate (%, average of eight eyes): administered once subconjunctivally immediately after laser irradiation; for Choroidal neovascularization inhibition rate (%): once subconjunctivally, versus vehicle administration group
Method: as §1, §2, §3, §4, §5
Hydrocortisone was dissolved in phosphate buffers so that its concentrations were 2 mg/ml and 20 mg/ml, and each solution was administered once subconjunctivally in an amount of 50 μl immediately after laser irradiation. The phosphate buffer was administered similarly as a vehicle administration group.
Evaluation was carried out by a method similar to the above-mentioned tests of betamethasone sodium phosphate.

[5] = 10 μg/eye/day subconjunctival for seven days after laser irradiation
[6] = 100 μg/eye/day subconjunctival for seven days after laser irradiation

SMILES: C[C@H]1C[C@H]2[C@@H]3CCC4=CC(=O)C=C[C@]4(C)[C@@]3(F)[C@@H](O)C[C@]2(C)[C@@]1(O)C(=O)COP(=O)([O-])[O-].[Na+].[Na+] [Betamethasone sodium phosphate, betamethasone sodium phosphate]
- Effect on hyperpermeability of retinal vessels due to thrombin (in words) [1]: the hyperpermeability of retinal vessels due to thrombin is inhibited
- Neovascularization exhibition rate (%, average of eight eyes) [2, 5]: 34.4%
- Neovascularization exhibition rate (%, average of eight eyes) [2, 6]: 11.1%

SMILES: C[C@H]1C[C@H]2[C@@H]3CCC4=CC(=O)C=C[C@]4(C)[C@@]3(F)[C@@H](O)C[C@]2(C)[C@@]1(O)C(=O)CO [Betamethasone]
- Pathogenesis rate of PVR ([3]; after 6 weeks): 45.5%
- Pathogenesis rate of PVR ([3]; after 10 weeks): 37.5%
- Pathogenesis rate of PVR ([3]; after 10 weeks, listed as betamethasone): 37.5%

SMILES: C[C@]12CCC(=O)C=C1CC[C@@H]1[C@@H]2[C@@H](O)C[C@@]2(C)[C@H]1CC[C@]2(O)C(=O)CO [Hydrocortisone]
- Neovascularization exhibition rate (%, average of eight eyes) ([4]; 100 μg/eye/day): 45.3%
- Choroidal neovascularization inhibition rate (%) ([4]; 100 μg/eye/day): 32.6%
- Neovascularization exhibition rate (%, average of eight eyes) ([4]; 1000 μg/eye/day): 19.6%
- Choroidal neovascularization inhibition rate (%) ([4]; 1000 μg/eye/day): 70.8%
- Inhibitory effect on choroidal neovascularization (in words) ([4]; both dosages of 100 μg/eye/day and 1,000 μg/eye/day): has an inhibitory effect on choroidal neovascularization

SMILES: C[C@]12C=CC(=O)C=C1CC[C@H]1[C@@H]3C[C@@H](O)[C@](O)(C(=O)CO)[C@@]3(C)C[C@H](O)[C@@]12F [Triamcinolone]
- Neovascularization exhibition rate (%, average of eight eyes) [2, 5]: 46.9%
- Choroidal neovascularization inhibition rate (%) ([2]; 10 μg/eye/day subconjunctival for seven days): 13.1%
- Neovascularization exhibition rate (%, average of eight eyes) [2, 6]: 22.3%
- Choroidal neovascularization inhibition rate (%) ([2]; 100 μg/eye/day subconjunctival for seven days): 58.8%
